tested on: Phytophthora infestans; experiment: microbe, parasite or virus in culture; assay type: cell-based; conditions: 30 ppm in Rye Agar medium; seven days at 18° C.

| SMILES | control (radial growth) compared to the untreated check |
| --- | --- |
| Cn1nc(C(F)(F)F)cc1OCC(=O)N1CCC(c2nc(C3=NOC(c4c(Cl)cccc4Cl)C3)cs2)CC1 (stereo not shown) [Compound 2] | 70% |
| Cn1nc(OCC(=O)N2CCC(c3nc(C4=NOC(c5c(Cl)cccc5OS(C)(=O)=O)C4)cs3)CC2)cc1C(F)(F)F (stereo not shown) [Compound 19] | 70% |
| O=C(COc1ncc(C(F)(F)F)cc1Br)N1CCC(c2nc(C3=NOC(c4c(F)cccc4F)C3)cs2)CC1 (stereo not shown) [Compound 53] | 70% |

same assay, conditions: Phytophthora infestans, 168 h, read-out: control (radial growth) compared to the untreated check

| SMILES | inhibition of growth at 30 ppm |
| --- | --- |
| CS(=O)(=O)Oc1cccc(Cl)c1C1CC(c2csc(C3CCN(C(=O)COc4ccc(C(F)(F)F)cn4)CC3)n2)=NO1 (stereo not shown) [Compound 48, 3-chloro-2-(3-(2-(1-(2-((5-(trifluoromethyl)pyridin-2-yl)oxy)acetyl)piperidin-4-yl)thiazol-4-yl)-4,5-dihydroisoxazol-5-yl)phenyl methanesulfonate] | 70% |
| CS(=O)(=O)Oc1cccc(Cl)c1C1CC(c2csc(C3CCN(C(=O)COc4cc(C(F)(F)F)ccn4)CC3)n2)=NO1 (stereo not shown) [Compound 46, 3-chloro-2-(3-(2-(1-(2-((4-(trifluoromethyl)pyridin-2-yl)oxy)acetyl)piperidin-4-yl)thiazol-4-yl)-4,5-dihydroisoxazol-5-yl)phenyl methanesulfonate] | 70% |
| Cn1nc(OCC(=O)N2CCC(c3nc(C4=NOC(c5c(F)cccc5F)C4)cs3)CC2)cc1C(F)(F)F (stereo not shown) [Compound 20, 1-(4-(4-(5-(2,6-difluorophenyl)-4,5-dihydroisoxazol-3-yl)thiazol-2-yl)piperidin-1-yl)-2-((1-methyl-5-(trifluoromethyl)-1H-pyrazol-3-yl)oxy) ethan-1-one] | 70% |
| CS(=O)(=O)Oc1cccc2c1COC(c1csc(C3CCN(C(=O)COc4ncccc4C(F)(F)F)CC3)n1)OC2 (stereo not shown) [Compound 91, 3-(2-(1-(2-((3-(trifluoromethyl)pyridin-2-yl)oxy)acetyl)piperidin-4-yl)thiazol-4-yl)-1,5-dihydrobenzo[e][1,3]dioxepin-6-yl methanesulfonate] | 70% |
| O=C(CSc1ncccc1C(F)(F)F)N1CCC(c2nc(C3=NOC(c4c(Cl)cc(Cl)cc4Cl)C3)cs2)CC1 (stereo not shown) [Compound 63] | 70% |
| O=C(COc1ccc(C(F)(F)F)cn1)N1CCC(c2nc(C3=NOC(c4c(F)cccc4F)C3)cs2)CC1 (stereo not shown) [Compound 49, 1-(4-(4-(5-(2,6-difluorophenyl)-4,5-dihydroisoxazol-3-yl)thiazol-2-yl)piperidin-1-yl)-2-((5-(trifluoromethyl)pyridin-2-yl)oxy)ethan-1-one] | 70% |
| Cc1cnc(OCC(=O)N2CCC(c3nc(C4=NOC(c5c(Cl)cccc5Cl)C4)cs3)CC2)c(C(F)(F)F)c1 (stereo not shown) [Compound 84, 1-(4-(4-(5-(2,6-dichlorophenyl)-4,5-dihydroisoxazol-3-yl)thiazol-2-yl)piperidin-1-yl)-2-((5-methyl-3-(trifluoromethyl)pyridin-2-yl)oxy)ethan-1-one] | 70% |
| Cc1cnc(OCC(=O)N2CCC(c3nc(C4=NOC(c5c(Cl)cccc5OS(C)(=O)=O)C4)cs3)CC2)c(C(F)(F)F)c1 (stereo not shown) [Compound 85, 3-chloro-2-(3-(2-(1-(2-((5-methyl-3-(trifluoromethyl)pyridin-2-yl)oxy)acetyl)piperidin-4-yl)thiazol-4-yl)-4,5-dihydroisoxazol-5-yl)phenyl methanesulfonate] | 70% |
| Cc1cccnc1OCC(=O)N1CCC(c2nc(C3=NOC(c4c(Cl)cccc4OS(C)(=O)=O)C3)cs2)CC1 (stereo not shown) [Compound 78, 3-chloro-2-(3-(2-(1-(2-((3-methylpyridin-2-yl)oxy)acetyl)piperidin-4-yl)thiazol-4-yl)-4,5-dihydroisoxazol-5-yl)phenyl methanesulfonate] | 70% |
| Cn1nc(C(F)(F)F)cc1OCC(=O)N1CCC(c2nc(C3=NOC(c4c(F)cccc4F)C3)cs2)CC1 (stereo not shown) [Compound 3, 1-(4-(4-(5-(2,6-difluorophenyl)-4,5-dihydroisoxazol-3-yl)thiazol-2-yl)piperidin-1-yl)-2-((1-methyl-3-(trifluoromethyl)-1H-pyrazol-5-yl)oxy) ethan-1-one] | 70% |
| O=C(COc1ncc(C(F)(F)F)cc1Br)N1CCC(c2nc(C3=NOC(c4c(Cl)cccc4Cl)C3)cs2)CC1 (stereo not shown) [Compound 51, 2-((3-bromo-5-(trifluoromethyl)pyridin-2-yl)oxy)-1-(4-(4-(5-(2,6-dichlorophenyl)-4,5-dihydroisoxazol-3-yl)thiazol-2-yl)piperidin-1-yl)ethan-1-one] | 70% |
| Cc1cnc(OCC(=O)N2CCC(c3nc(C4=NOC(c5c(F)cccc5F)C4)cs3)CC2)c(C(F)(F)F)c1 (stereo not shown) [Compound 88, 1-(4-(4-(5-(2,6-difluorophenyl)-4,5-dihydroisoxazol-3-yl)thiazol-2-yl)piperidin-1-yl)-2-((5-methyl-3-(trifluoromethyl)pyridin-2-yl)oxy)ethan-1-one] | 70% |
| O=C(COc1ncccc1C(F)(F)F)N1CCC(c2nc(C3OCc4ccccc4CO3)cs2)CC1 [Compound 59, 1-(4-(4-(1,5-dihydrobenzo[e][1,3]dioxepin-3-yl)thiazol-2-yl)piperidin-1-yl)-2-((3-(trifluoromethyl)pyridin-2-yl)oxy)ethan-1-one] | 70% |
| O=C(COc1cc(C(F)(F)F)ccn1)N1CCC(c2nc(C3=NOC(c4c(F)cccc4F)C3)cs2)CC1 (stereo not shown) [Compound 43] | 70% |
| Cn1ccc(OCC(=O)N2CCC(c3nc(C4=NOC(c5c(F)cccc5F)C4)cs3)CC2)n1 (stereo not shown) [Compound 1, 1-(4-(4-(5-(2,6-difluorophenyl)-4,5-dihydroisoxazol-3-yl)thiazol-2-yl)piperidin-1-yl)-2-((1-methyl-1H-pyrazol-3-yl)oxy)ethan-1-one] | 70% |
| CN(C)C(N(CC(=O)N1CCC(c2nc(C3=NOC(c4c(F)cccc4F)C3)cs2)CC1)c1ccc(C(F)(F)F)cn1)=[N+](C)C (stereo not shown) [Compound 69] | 70% |
| O=C(CNc1ncccc1C(F)(F)F)N1CCC(c2nc(C3=NOC(c4c(Cl)cccc4Cl)C3)cs2)CC1 (stereo not shown) [Compound 82, 1-(4-(4-(5-(2,6-dichlorophenyl)-4,5-dihydroisoxazol-3-yl)thiazol-2-yl)piperidin-1-yl)-2-((3-(trifluoromethyl)pyridin-2-yl)amino)ethan-1-one] | 70% |
| O=C(COc1ncc(C(F)(F)F)cc1Br)N1CCC(c2nc(C3=NOC(c4c(Cl)cc(Cl)cc4Cl)C3)cs2)CC1 (stereo not shown) [Compound 54, 2-((3-bromo-5-(trifluoromethyl)pyridin-2-yl)oxy)-1-(4-(4-(5-(2,4,6-trichlorophenyl)-4,5-dihydroisoxazol-3-yl)thiazol-2-yl)piperidin-1-yl)ethan-1-one] | 70% |
| Cn1nc(C(F)(F)F)cc1OCC(=O)N1CCC(c2nc(C3=NOC(c4c(Cl)cccc4OS(C)(=O)=O)C3)cs2)CC1 (stereo not shown) [Compound 4, 3-chloro-2-(3-(2-(1-(2-((1-methyl-3-(trifluoromethyl)-1H-pyrazol-5-yl)oxy)acetyl)piperidin-4-yl)thiazol-4-yl)-4,5-dihydroisoxazol-5-yl)phenyl methanesulfonate] | 70% |
| O=C(CSc1ncc(C(F)(F)F)cc1Cl)N1CCC(c2nc(C3=NOC(c4c(F)cccc4F)C3)cs2)CC1 (stereo not shown) [Compound 65, 2-((3-chloro-5-(trifluoromethyl)pyridin-2-yl)thio)-1-(4-(4-(5-(2,6-difluorophenyl)-4,5-dihydroisoxazol-3-yl)thiazol-2-yl)piperidin-1-yl)ethan-1-one] | 70% |
| Cn1nc(OCC(=O)N2CCC(c3nc(C4=NOC(c5c(F)cccc5F)C4)cs3)CC2)cc1C(F)F (stereo not shown) [Compound 9] | 70% |
| CS(=O)(=O)Oc1cccc(Cl)c1C1CC(c2csc(C3CCN(C(=O)COc4cccc(C(F)(F)F)n4)CC3)n2)=NO1 (stereo not shown) [Compound 71, 3-chloro-2-(3-(2-(1-(2-((6-(trifluoromethyl)pyridin-2-yl)oxy)acetyl)piperidin-4-yl)thiazol-4-yl)-4,5-dihydroisoxazol-5-yl)phenyl methanesulfonate] | 70% |
| O=C(COc1cccc(C(F)(F)F)n1)N1CCC(c2nc(C3=NOC(c4c(Cl)cccc4Cl)C3)cs2)CC1 (stereo not shown) [Compound 70, 1-(4-(4-(5-(2,6-dichlorophenyl)-4,5-dihydroisoxazol-3-yl)thiazol-2-yl)piperidin-1-yl)-2-((6-(trifluoromethyl)pyridin-2-yl)oxy)ethan-1-one] | 70% |
| Cc1ccc(C(F)(F)F)c(OCC(=O)N2CCC(c3nc(C4OCc5cccc(OS(C)(=O)=O)c5CO4)cs3)CC2)n1 (stereo not shown) [Compound 92, 3-(2-(1-(2-((6-methyl-3-(trifluoromethyl)pyridin-2-yl)oxy)acetyl)piperidin-4-yl)thiazol-4-yl)-1,5-dihydrobenzo[e][1,3]dioxepin-6-yl methanesulfonate] | 70% |
| Cn1ccc(OCC(=O)N2CCC(c3nc(C4=NOC(c5c(Cl)cccc5OS(C)(=O)=O)C4)cs3)CC2)n1 (stereo not shown) [Compound 5, 3-chloro-2-(3-(2-(1-(2-((1-methyl-1H-pyrazol-3-yl)oxy)acetyl)piperidin-4-yl)thiazol-4-yl)-4,5-dihydroisoxazol-5-yl)phenyl methanesulfonate] | 70% |
| O=C(COc1ccc(C(F)(F)F)cn1)N1CCC(c2nc(C3=NOC(c4c(Cl)cccc4Cl)C3)cs2)CC1 (stereo not shown) [Compound 47, 1-(4-(4-(5-(2,6-dichlorophenyl)-4,5-dihydroisoxazol-3-yl)thiazol-2-yl)piperidin-1-yl)-2-((5-(trifluoromethyl)pyridin-2-yl)oxy)ethan-1-one] | 70% |
| O=C(COc1cccc(C(F)(F)F)n1)N1CCC(c2nc(C3=NOC(c4c(F)cccc4F)C3)cs2)CC1 (stereo not shown) [Compound 72, 1-(4-(4-(5-(2,6-difluorophenyl)-4,5-dihydroisoxazol-3-yl)thiazol-2-yl)piperidin-1-yl)-2-((6-(trifluoromethyl)pyridin-2-yl)oxy)ethan-1-one] | 70% |
| O=C(COc1ncccc1C(F)F)N1CCC(c2nc(C3=NOC(c4c(Cl)cccc4Cl)C3)cs2)CC1 (stereo not shown) [Compound 90] | 70% |
